Test results reported in patent US20250082720A1, “NEW PEPTIDE AND USES THEREOF” (Neo Cremar Co., Ltd., priority 2021, published 2025).

Key:
Type in all cases: cell-based, mouse
C2C12 cells [1] = assay: C2C12 myoblast proliferation (MTT method)
Experimental: C2C12 cells, a mouse myoblast line, were cultured in Dulbecco's Modified Eagle's Medium (DMEM)+10% fetal bovine serum (FBS)+1% penicillin/streptomycin (P/S). To validate the effect of MIF peptide, C2C12 cells (2×10^3 cells/ml) were placed in a 12 well cell culture dish and attached for 24 hours, and MIF2 or Ac-MIF2-NH2 peptide (1000 nM) was treated for 1 day to observe cell proliferation by MTT method. The medium was replaced every 2 days, and the cells were cultured at 37° C.
To validate cell proliferation, the culture medium of the cells was removed, the cells were washed with DMEM, 500 μl of MTT reagent (0.5 mg/ml) dissolved in phosphate buffered saline (PBS) was added to each well, and the cells were left at 37° C. for 1 hour. The reaction solution was removed, and 1000 μl of DMSO was added to each well. Purple formazan crystals were completely dissolved in DMSO, and the absorbance was measured at 540 nm.

C2C12 cells [2] = assay: Myodifferentiation: root canal formation and fusion index (Giemsa staining)
Experimental: When C2C12 cells were 70% grown, media were replaced with myodifferentiation medium added with MSTN protein (1 ng), Ac-MIF2-NH2 (1000 nM), and Ac-MIF2-NH2 (1000 nM)+MSTN protein (1 ng) from proliferation medium, followed by culture for 3 days.
When the cells grew more than 70% for differentiation of myoblasts into myocytes, they were cultured for 3 days by replacing with a differentiation medium (DMEM+2% FBS+1% P/S). The medium was replaced once daily, and the cells were cultured at 37° C.
The cell medium was removed, and the cells were washed with PBS. After washing, a methanol: PBS reagent in a 1:1 volume ratio was treated, followed by fixation for 2 minutes. Additionally, after a methanol: PBS reagent in a 2:1 volume ratio was added, fixation was followed for additional 2 minutes. After 2 minutes, 0.04% Giemsa reagent was added, and then the cells were left for 30 minutes, washed with PBS after 30 minutes, and observed under a microscope, with 3 photographs taken for each cell (300×). In the photographs taken, the number of fused nuclei in the root canal cells was counted, the number of nuclei of total cells was counted, and the number of fused nuclei was divided by the number of nuclei of the total cells to obtain the % value.

C2C12 cells [3] = assay: Scratch experiment, degree of cell recovery; details: C2C12 100% grown, 1000 nM peptide, 1 day
Experimental: When the C2C12 cells were 100% grown, cells were scratches on the surface, treated with 1000 nM MIF2 or Ac-MIF2-NH2 peptides, and cultured for 1 day, followed by observation for a degree of cell recovery.

C2C12 cells [4] = assay: Expression of myodifferentiation-related factors (real-time PCR, Western blot, immunocytochemistry)
Experimental: After adding 1 ml of TRIzol™ reagent, the cells were crushed using a sonicator. After centrifugation of the crushed sample (12,000 rpm, 10 min, 4° C.), the supernatant was transferred to a new tube, added with 200 μl of chloroform, and left at room temperature for 10 minutes. After 10 minutes, centrifugation (12,000 rpm, 10 min, 4° C.) was performed, yielded a transparent supernatant. Next, 500 μl of isopropanol was added, the mixture was left for 10 minutes, and centrifugation was performed to obtain RNA pellets. After washing by adding 70% ethanol (distilled water treated with ethanol+diethylpyrocarbonate (hereinafter referred to as DEPC)) to the RNA pellets, complete removal and drying were followed. The dried transparent RNA was added with DEPC-treated distilled water and then stored at −80° C. Total RNA volume was measured by nanodrop, and the 18s and 28s bands were detected in 1.2% agarose gel. cDNA was synthesized with 2 μg of total RNA, random hexamer primers, and reverse transcriptase (25° C.: 10 min, 37° C.: 120 min, 85° C.: 5 min).
Real-time PCR (RT-PCR) was performed for detecting gene expression. For observation of real-time gene expression, gene expression was analyzed using the Power SYBR Green PCR Master Mix, which includes fluorescent materials of SYBR green (7500 Real-time PCR system). The PCR primer was designed with Primer 3 software (http://frodo.wi.mit.edu) according to the nucleotide sequence secured from NCBI GenBank. PCR was performed 40 times at 95° C. for 10 minutes, again at 95° C. for 33 seconds, at gene primer temperature (tm) for 33 seconds, and at 72° C. for 33 seconds. Gene expression values were analyzed through the analysis of c(t) values obtained through real-time PCR analysis (fold change 2-ΔΔCt formula). Setting the gene expression value of the untreated cells to 1, the gene expression value of the treated cells was calculated. In the analysis of gene c(t) values, normalization was conducted with the glyceraldehyde-3-phosphate dehydrogenase (GAPDH).
The medium of cultured C2C12 cells was removed and washed once with PBS. The washed cells were treated with 4% formaldehyde (Sigma), fixed for 15 minutes, then washed using PBS, added with 0.2% trypton X-100 (Sigma), and left for 5 minutes. After washing again using PBS, adding 1% normal goat serum, and leaving for 30 minutes, the primary antibody (MYOD, myogenin (MYOG): myosin light chain (MYL2); 1:50) was added to carry out a reaction at 4° C. for 14 hours. The antibodies were removed, washing was performed 3 times with PBS for 10 minutes, and then the cells were left with secondary antibody (Alexa Fluor 488 goat anti-Mouse & rabbit SFX kit t) for 1 hour. After 1 hour, the antibodies were removed, washing was performed with PBS for 10 minutes, the nuclei were stained with 4′,6-diamidino-2-phenylindol (DAPI), and the expression of the proteins was observed using fluorescence microscopy.
(1) The medium of cultured C2C12 cells was removed, followed by washing with PBS. After adding LIPA buffer and protease inhibitor to the washed cells, the proteins included in the supernatant were collected after centrifugation for 10 minutes at 12000 rpm. 40 μg of the extracted proteins were subjected to electrophoresis in 8 to 10% acrylamide gel and then transferred to a polyvinylidene fluoride (PVDF) membrane (Milipore). These were blocked with 3% skim milk or bovine serum albumin (BSA) at room temperature for 1 hour. Afterwards, primary antibody diluted in 1% skim milk or BSA (Pax7; 1:500, MYOD; 1:500, MYOG; 1:400, MYL2; 1:1000, MYH; 1:500, MSTN; 1:1000, β-actin; 1:1000, MuRF1; 1:400, and Atrogin; 1:1:400) was added and reacted at 4° C. for over 16 hours. After 16 hours, cells were washed three times with TBST (Tris-buffered saline with Tween 20) and reacted with secondary antibody with horseradish peroxidase (HRP) conjugated at room temperature for 1 hour. […]

[5] = C2C12 differentiation, versus control
[6] = C2C12 myodifferentiation, FIG. 6

Row | Substance | proliferation of cells compared to untreated cells (C2C12 cells [1]; C2C12, MSTN protein in proliferation medium, FIG. 3) | differentiation of cells compared to untreated cells (C2C12 cells [2]; C2C12, MSTN protein in differentiation medium, FIG. 3) | root canal formation compared to untreated cells (C2C12 cells [2]; C2C12, differentiation medium, 3 days) | increase in cell proliferation compared to cells without peptide treatment (C2C12 cells [1]; C2C12, peptide 1000 nM, 1 day, MTT, FIG. 4) | increase in scratch recovery degree compared to untreated cells (C2C12 cells [3]) | increase in fusion index compared to untreated cells (C2C12 cells [2]; C2C12, differentiation medium with peptide, 3 days) | expression of MSTN mRNA and proteins (C2C12 cells [4]; [5]) | mRNA and protein expression of MYOD, MYOG, MYL2, and MYH (C2C12 cells [4]; [5]) | expression of ACVRIIB mRNA (C2C12 cells [4]; [6]) | expression of MuRF1 and ACVRIIB proteins (C2C12 cells [4]; [6])
1 | MSTN protein: myostatin protein that inhibits the proliferation and differentiation of myoblasts [reference compound] | reduced | reduced | reduced | – | – | – | – | – | – | –
2 | VDFEAGDWFW [MIF2] | – | – | – | 6% | 22% | 12% | did not show any significant differences | increased | decreased | decreased
